From patent publication US10098964B2, “Inclusion complexes and methods for making the same” (The Board of Trustees of the University of Illinois, priority 2015, dated 2018)

Assays:
[1] = In-vitro fermentation (large intestine): butyrate produced; format: in vitro ADME
[2] = cited from earlier work

SMILES | Butyrate produced, 4 hr ([1]; fermentation 4 hr, representative of ascending large intestine) | Butyrate produced, 8 hr ([1]; fermentation 8 hr, representative of transverse large intestine) | Butyrate produced, 12 hr ([1]; fermentation 12 hr, representative of descending large intestine) | half-life in human plasma [2]
CCCC(=O)OCC(COC(=O)CCC)OC(=O)CCC [Tributyrin, 1,3-di(butanoyloxy)propan-2-yl butanoate] | 106389.69 µg/g (DMB) | 164605.74 µg/g (DMB) | 134093.05 µg/g (DMB) | 
CCCC(=O)O [butyrate, butyric acid] |  |  |  | < 6 min
